In publication PMC9088798, “An Approach to Derive Functional Peptide Inhibitors of Transcription Factor Activity” (JACS Au, 2022):
Where no end group is shown, it is not given here.

How the values were obtained:
cJun/TRE DNA interaction = target: T1, cJun/TRE DNA interaction (Homo sapiens, UniProt P05412); test: CD TRE DNA peak shift, antagonism of cJun/TRE DNA interaction; format: biochemical; settings: cJun 20 μM, TRE DNA 5 μM, DNA peak ~281 nm, Hill equation; three independent experiments, one SD; pH 7.4
T1 construct: The human cJun bZIP domain spans from Arg252 to Leu308; His-SUMO (N, cleaved yes); AS cap (two residues Ala-Ser) (N); GAP cap (three residues Gly-Ala-Pro) (C); made in house; host or cells: E. coli (pET21-His-SUMO plasmid)
Method: The binding of cJun to TRE DNA can be observed by monitoring a DNA absorbance peak in the CD spectrum centered at ∼281 nm.[44] […] The addition of cJun (20 μM) to TRE DNA (5 μM) decreases this DNA peak by 55% as the cJun engages its target TRE site and alters the DNA structure (Figure 6A). Subsequent titration of HingeW into this bound cJun/TRE DNA mixture reverses the peak shift, with the peak increasing as DNA is released.
Figure 6 HingeW antagonizes cJun/TRE DNA interaction more effectively than A-FosW. (A) CD spectra showing a shift in the TRE DNA peak at ∼281 nm upon addition of cJun, which is reversed by the titration of HingeW into the sample, as HingeW sequesters the cJun in a nonfunctional heterodimer. […] EMSA showing the (C) unbound TRE DNA band shift upon addition of cJun and the subsequent restoration of the unbound DNA band intensity upon titration of either (D) HingeW or (E) A-FosW. (F). For both CD and EMSA, data was averaged from three independent experiments and the plotted error bars indicate one standard deviation. […]
(§1) µM) alongside ampicillin, kanamycin and chloramphenicol to maintain the required plasmids, and IPTG (1 mM) to induce protein expression. The library transformants were […]
increased to the optimum 4 µM in subsequent passages. […] This allows the occurrence of library members to be monitored as winner sequences are selected for. […]

[1] = test system: cJun bZIP / TRE sites in TRE-mDHFR gene; test: Transcription block survival (TBS) colony counting in E. coli; format: cell-based, human cJun, expressed in E. coli; settings: three experimental repeats
Method: Figure 3 Transcription block survival (TBS) assay to derive functionally active cJun inhibitors. (A) Schematic illustrating the design and operation of TBS. (B) Controlled numbers of E. coli expressing the indicated proteins were plated on selective media and growth rates were calculated by counting colony-forming units. […] (2) A small effect on colony numbers is observed when cJun bZIP is additionally expressed. (3) TRE-mDHFR can replace the inhibited ecDHFR with colony count lower than for WT as expected. […] Although (6) cFos LZ and (7) FosW are known cJun-binders, they are unable to effectively dissociate the cJun bZIP from TRE DNA. However, (8) A-FosW and the TBS-derived hit (9) HingeW remove TRE-mDHFR transcriptional blocks to restore cell survival. Bar charts represent averages of three experimental repeats. Errors are shown as one standard deviation. Selected P values from a t-test are indicated (*P ≤ 0.05; **P ≤ 0.01; ****P ≤ 0.0001) with values for all possible comparisons within the bar chart reported in Figure S7. Serial dilutions were used to quantify colony numbers where required. Also shown are representative plate images and schematics to illustrate the effect upon TRE-mDHFR transcription. […]
Library Construction and TBS Assay: Library inserts were produced using PCR fill-in reactions from synthesised primers (Sigma) with degenerate codons at the desired positions to produce the correct residue options. The library was subcloned using SacI and AscI sites into the pET24a plasmid containing A-FosW. The primers used were cJun- […]
-3’ and cJun-Hinge-Lib_R: 5’-
-3’. The library DNA was transformed into NEB 10-beta electrocompetent E. coli cells. The following equation was utilised to determine library […]
coverage by the number of single colonies: where E is the percentage […] of the library missing, m is the number of colonies collected and n is the library size. This […]
covered. Library DNA quality was assessed by sequencing both the DNA pool and a number of single colonies to show degenerate codons in the correct positions in the pool and to show a diversity of library members from single colonies. The pool of library DNA was transformed into BL21 Gold cells already containing pES300d-TRE-mDHFR and […]
as §1
however a lower stringency is used initially before selection is increased in later steps.
Colonies from this first round of selection were pooled and serially grown in liquid culture at starting OD600 of 0.05 and grown at 37°C with shaking at 200 rpm until the OD600 […]
increased to the optimum 4 µM in subsequent passages. Bacteria containing the most effective functional antagonists were expected to produce higher levels of TRE-mDHFR which provides a growth advantage, and these will dominate the culture. At each passage step, a sample of the culture was plated on LB agar (supplemented with antibiotics to maintain plasmids) to select and sequence individual colonies, and a DNA pool was also sequenced. This allows the occurrence of library members to be monitored as winner sequences are selected for. Assay Validation experiments utilised a modified assay methodology whereby overnight cultures from glycerol stocks of the Control Strains (Figure S6) were diluted to OD600=0.5 and 50 µL was plated on a selective M9 minimal […]

WT-mDHFR = test: DHFR activity assay (NADPH turnover at 340 nm), WT-mDHFR; format: biochemical, murine
Method: (§2) (A) Fifteen TRE sites were introduced into the mDHFR gene (2 silent and 13 substitutions) to allow for a cJun-induced transcriptional block. […] Change in absorbance at 340 nm was measured to determine the rate of NADPH turnover by (B) WT-mDHFR and (C) TRE-mDHFR with or without the substrate DHF. […] Specific activity was calculated from the linear initial rate (first 2.5 min for WT-mDHFR, first 10 min for TRE-mDHFR; +NADPH only reaction blank subtracted). Data are averages from triplicate experiments with errors shown as one standard deviation.
(§3) Jupiter Proteo column (4-μm particle size, 90 Å pore size, 250 × 10 mm; Phenomenex) using a water:acetonitrile gradient (0.1% TFA). Peptides without a SUMO tag, were concentrated after Histrap elution and HPLC purified. […]
(§4) or Mtx (1 µM in reaction). Reactions were initiated by the addition of DHF (50 µM in reaction plus a blank reaction with no DHF) and the absorbance at 340 nm of samples was measured using a Varian Cary 50 UV-Vis spectrophotometer. The specific activity (∆OD/minsample― ∆OD/minblank) was calculated using the following equation. Specific activity = 12.3× mg protein Library Construction and TBS Assay: Library inserts were produced using PCR fill-in reactions from synthesised primers (Sigma) with degenerate codons at the desired positions to produce the correct residue options. […]

TRE-mDHFR = test: DHFR activity assay (NADPH turnover at 340 nm), TRE-mDHFR; format: biochemical, murine
Method: as §2, §3, §4

T1 sequence (P05412 252-308): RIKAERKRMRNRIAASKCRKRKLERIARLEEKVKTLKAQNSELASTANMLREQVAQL

Molecule: MASLDELQAEIEQLEERNYALRKEIEDLQKQLEKLGAPHHHHHH [FosW, reference compound]
- IC50 (cJun/TRE DNA interaction): 119.8 ± 1.1 µM

Molecule: cFos LZ: human cFos leucine zipper domain, Thr162 to Leu193 [reference compound]
- restoration of colony numbers of transcriptionally blocked cells ([1]; TRE-mDHFR + cJun bZIP + peptide vs TRE-mDHFR + cJun bZIP, M9 + TMP + IPTG, P > 0.05): no significant increase in colony numbers

Molecule: cJun LZ: cJun LZ only construct in which the 25 residue DBD was deleted; Ile277 to Leu308 (IARLEEKVKTLKAQNSELASTANMLREQVAQL; UniProt P05412 277-308, looked up, fragment) [reference compound]
- effect of cJun LZ (DBD deleted) on colony formation ([1]; TRE-mDHFR + cJun LZ vs TRE-mDHFR only, P = 0.1): did not affect bacterial colony formation

Molecule: CN(Cc1cnc2nc(N)nc(N)c2n1)c1ccc(C(=O)N[C@@H](CCC(=O)O)C(=O)O)cc1 [MTX, methotrexate, reference compound]
- inhibition by MTX (WT-mDHFR): clear inhibition of the reaction
- inhibition by MTX (TRE-mDHFR): clear inhibition of the reaction
